Values of other authors as cited in patent US7816544B2, “Synthesis of rocaglamide natural products via photochemical generation of oxidopyrylium species” (Trustees of Boston University, priority 2004, dated 2010).

Legend:
NF-κB = conditions: different mouse and human T cell lines; B. Baumann et al., J. Biol. Chem., 2002
human cancer cells = conditions: compared with Taxol; B. Y. Hwang et al., J. Org. Chem., 2004

| Compound | inhibition of NF-κB activity / NF-κB-induced gene activation (NF-κB) | cytotoxic activity against human cancer cells (human cancer cells) |
| --- | --- | --- |
| COc1ccc([C@@]23Oc4cc(OC)cc(OC)c4[C@]2(O)[C@H](O)[C@H](C(=O)N(C)C)[C@H]3c2ccccc2)cc1 [Rocaglamide] | among the strongest inhibitors of NF-κB-induced gene activation known so far |  |
| COC(=O)[C@H]1[C@@H](O)[C@@]2(O)c3c(OC)cc(O[C@@H]4O[C@@H]([C@H](O)CO)CO[C@H]4OC)cc3O[C@@]2(c2ccc(OC)cc2)[C@@H]1c1ccccc1 [silvestrol 2, silvestrol] |  | comparable to the anticancer drug Taxol |
